# Reference: article PMC4708624, “The metabolism and de-bromination of bromotyrosine in vivo” (Free Radical Biology & Medicine, 2016)
# Like-named read-outs stand apart in the source and are kept apart here.
# Columns and labels:
# [1] = design: method as in PMID 17686770; details: deuterium-labeled metabolites after infusion of deuterium-labeled chlorotyrosine ref 9; cited from earlier work
# [2] = target: T1, Iodotyrosine dehalogenase 1 (DEHAL1) (Homo sapiens, UniProt Q6PHW0); design: method as in PMID 17686770; details: previous report ref 9; cited from earlier work
# T1 construct: made in house; host or cells: HEK293 cells transfected with DEHAL1 cDNA in pcDNA3.1; used as cell lysate
# T1 sequence (Q6PHW0 1-289): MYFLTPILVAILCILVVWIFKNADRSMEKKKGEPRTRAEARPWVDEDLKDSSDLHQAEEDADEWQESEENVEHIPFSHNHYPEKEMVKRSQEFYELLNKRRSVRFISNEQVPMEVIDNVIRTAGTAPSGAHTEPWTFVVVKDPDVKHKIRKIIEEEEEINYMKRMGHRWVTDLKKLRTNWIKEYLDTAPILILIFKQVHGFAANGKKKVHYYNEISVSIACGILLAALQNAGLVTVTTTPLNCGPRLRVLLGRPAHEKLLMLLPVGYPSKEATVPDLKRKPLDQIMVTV
# [3] = target: T1, Iodotyrosine dehalogenase 1 (DEHAL1); assay: Inhibition of DEHAL1 deiodinase activity (radioiodide formation from [125I]iodotyrosine); assay type: biochemical; details: 0.01–100 μM, 60 min at 37 °C, NADPH, dithiothreitol
# Method: (§1) Iodotyrosine dehalogenase 1 (DEHAL1) was obtained from HEK293 cells transfected with DEHAL1 cDNA, using a pcDNA3.1 expression vector [9], [19]. To determine whether bromotyrosine, di-bromotyrosine or bromo-HPA interact with iodotyrosine dehalogenase, deiodinase activity was measured based on radioiodide formation from [125I]iodotyrosine. Incubation mixtures contained [125I]iodotyrosine (∼100,000 cpm mixed with 0.1 μM unlabeled iodotyrosine), DEHAL1 enzyme, and varying amounts of iodotyrosine, bromotyrosine, di-bromotyrosine, bromp-HPA and tyrosine (0.01–100 μM final concentration) in 100 μl of PBS containing NADPH (100 μM), EDTA (2 mM), and dithiothreitol (10 mM), [19]. Mixtures were incubated in duplicate for 60 min at 37 °C, and the reactions were stopped by addition of 0.9 ml of 10% acetic acid on ice. The radioiodide in the mixture was separated from the remaining [125I]iodotyrosine with ion exchange chromatography on Dowex columns. The columns were washed with 10 % acetic acid and eluted with 8 ml of 1 mM ammonia solution. Blank incubations without enzyme were used to correct for non-enzymatic deiodination. To determine whether bromotyrosine or di-bromotyrosine could act as a substrate of DEHAL1, the brominated or iodinated tyrosine derivatives (1 μM) were incubated with DEHAL1 in 100 μl of PBS containing NADPH (100 μM), EDTA (2 mM), and dithiothreitol (10 mM). Mixtures were then incubated in duplicate for 60 min at 37 °C, and the reaction was stopped by addition of 1 ml of 10 % acetic acid on ice. Substrate levels were measured using HPLC as described. Cell lysates from HEK293 cells transfected with empty pcDNA3.1 plasmid were used as control. In experiments where di-bromotyrosine, or di-iodotyrosine was used as substrate, concentrations of mono-bromotyrosine and mono-iodotyrosine were measured as a product of de-halogenation.
# [4] = Identification of urinary metabolites of di-bromotyrosine in vivo (full scan GC/MS); design: species or system Sprague-Dawley rats; details: rats, intraperitoneal 30 µmol, 24 h urine, compared with tyrosine injected animals
# Method: A similar method used by Ohshima et al. was used for identification of urinary metabolites of di-bromotyrosine. […] Urine was collected in metabolic cages for 24 h. Urine samples were acidified to pH 1.0 with HCl and extracted with an equivalent volume of ethyl acetate.
# [5] = target: T1, Iodotyrosine dehalogenase 1 (DEHAL1); assay: Dehalogenation of halogenated tyrosines as substrates of DEHAL1 (HPLC); assay type: biochemical; details: for Substrate converted by DEHAL1: substrate 1 μM, NADPH 100 μM, dithiothreitol 10 mM; for Substrate converted by DEHAL1 / Formation of mono-halogenated tyrosine as product of de-halogenation of the di-halogenated substrate by DEHAL1: 60 min at 37 °C; for Formation of mono-halogenated tyrosine as product of de-halogenation of the di-halogenated substrate by DEHAL1: di-iodotyrosine or di-bromotyrosine 1 μM as substrate
# Method: as §1
# [6] = Incubation of bromo-HPA with rat liver homogenates; assay type: in vitro ADME; details: data not shown
# [7] = test system: HepG2 cells; details: 24 h with 250 nmoles [D3]bromotyrosine (25 µM, 10 ml)
# Method: HepG2 cells (ECACC, Wiltshire, UK) were maintained in MEM (minimum Eagle's medium) supplemented with 10% fetal calf serum. Monolayer HepG2 cells were plated in 175 cm^3 vented tissue culture flasks until 70% confluent, when they were incubated with [D3]bromotyrosine (final concentration 25 µM). 24 h after incubation with [D3]bromotyrosine, cells were washed two times with PBS and were detached from the flask using a cell scraper. Detached cells were washed and re-suspended in 2 ml of PBS. Cell suspensions were subjected to protein precipitation by adding 1 ml of ice-cold chloroform/methanol (2:1, v/v) solution. After centrifugation (1000×g for 20 min), protein precipitates were washed with methanol and lyophilized under vacuum for assessment of protein-bound [D3]bromotyrosine and [D3]tyrosine as described [9], [17], [18]. […] The samples were then derivatized with ethyl heptafluorobutyrate and silylated with tert-butyldimethylsilyl, and monitored for ion masses of 492, 498, 410, 415 for [D3]bromotyrosine, [^13C9]bromotyrosine, [D3]tyrosine and [^13C9]tyrosine, respectively (Table 1) using negative-ion chemical ionization GC/MS [9], [17], [18]. […] All data are expressed as mean±standard error.
# [8] = rats; for Molar percentage of the excreted metabolites in 24-h urine (% of infused [D3]bromotyrosine) / Total amounts (nmole) excreted in 24-h urine: intraperitoneal injection of 500 nmole [D3]bromotyrosine
# Method: ^13C-Labeled internal standard (5 ng) was added to 20 µl of rat urine and diluted to 1 ml of total volume with 0.1 % (v/v) TFA/water (pH 5.0). The samples were extracted using LC18 reverse phase column, as described above. Bromotyrosine and tyrosine were derivatized with ethyl heptafluorobutyrate and silylated with tert-butyldimethylsilyl, as described, [17], [18]. Derivatized samples were dried under nitrogen, and redissolved in 20 µl of n-undecane. Samples were applied to a GC equipped with a 15-m DB-1701 (J&W Scientific, Folsom, CA) capillary column (0.25-mm internal diameter, […]), interfaced with a mass spectrometer (Trio 1000; Fisons Instruments, Beverly, MA). The ion source and interface temperatures were set at 200 and 320 °C, respectively. Samples were analyzed in negative-ion chemical ionization mode with ammonia as the reagent gas, using 1 µl of each sample for injection. The initial column temperature was maintained at 150 °C for 1 min increasing to 300 °C at 20 °C/min. Ions were monitored at 489, 492, and 498 mass units for authentic, [D3] and [^13C9]bromotyrosine, respectively (Table 1). For measurement of tyrosine, samples were monitored at 407, 410 and 415 m/z for authentic, [D3]tyrosine and [^13C9]tyrosine, respectively. Concentrations were calculated by ratio to known ^13C9-labeled internal standards.
# ^13C-Labeled internal standard (5 ng) was added to 20 µl of rat urine and diluted to 1 ml with 0.1 % (v/v) TFA/water (pH 5.0). The samples were extracted using LC18 reverse-phase column as described above. The samples were derivatized to the pentafluorobenzyl ester by the addition of 20 µl of di-isopropyl ethylamine in acetonitrile and […] of 10 % (v/v) pentafluorobenzyl bromide in acetonitrile for 1 h at room temperature (21–23 °C), dried under nitrogen, and redissolved in […] of n-undecane for GC/MS analysis, [14]. The GC/MS set up was as described above, and ions were monitored at 409, 412, and 417 mass units for authentic, [D3] and [^13C8]bromo-HPA, respectively, with single-ion monitoring (Table 1). For measuring HPA, samples were monitored at 331, 334, and 339 mass units for authentic, [D3] and [^13C8]HPA, respectively. The concentrations were calculated from the known ^13C8-labeled internal standards.
# Male Sprague-Dawley rats (n=3 in each group) were given a single intraperitoneal injection of [D3]bromotyrosine (0.50 µmol). The animals were then transferred to standard metabolic cages, and urine samples were collected for 24 h. The levels of deuterated bromotyrosine, tyrosine, bromo-HPA, and HPA were measured in the collected urine samples, as described above.
# [9] = Endogenous bromination of HPA: urine monitoring after intraperitoneal [D6]HPA; assay type: in vivo; details: healthy rats, intraperitoneal injection of [D6]HPA, data not shown
# Source text: It is not known, whether or not, bromo-HPA is exclusively derived from the metabolism of bromotyrosine. […] Such reaction may occur for bromotyrosine as well, and needs to be explored in future investigations. Likewise, we previously reported that nitro-HPA is not exclusively derived from nitrotyrosine metabolism, and it is mainly formed by nitration of HPA in both humans and rats, [29]. To determine whether or not bromo-HPA could be formed by endogenous bromination of HPA in healthy rats, deuterium-labeled HPA ([D6]HPA) was synthesized and injected into healthy rats as described. The formation of deuterated bromo-HPA was then monitored in urine samples.
compound,measurement,setting,value
"O=C(O)Cc1ccc(O)c(Cl)c1 [chloro-HPA, 3-chloro-4-hydroxyphenylacetic acid]",Urinary excretion rate relative to un-metabolized chlorotyrosine,[1],3.3 fold
"N[C@@H](Cc1ccc(O)c(Cl)c1)C(=O)O [chlorotyrosine, 3-chlorotyrosine]",De-chlorination by DEHAL1 in vitro,[2],unable to show a significant de-chlorination
N[C@@H](Cc1ccc(O)cc1)C(=O)O [tyrosine],Inhibition of DEHAL1-induced deiodinase activity,[3],Neither tyrosine nor bromo-HPA showed the ability to inhibit deiodination
"N[C@@H](Cc1cc(Br)c(O)c(Br)c1)C(=O)O [di-bromotyrosine, 3,5-di-bromotyrosine]",Urinary metabolites identified,[4],di-bromo-HPA and mono-bromo-HPA
same,Substrate converted by DEHAL1,[5],4%
same,Inhibition of DEHAL1-induced deiodinase activity,[3],could inhibit DEHAL1-induced deiodinase activity in a concentration-dependent manner
"O=C(O)Cc1ccc(O)c(Br)c1 [bromo-HPA, 3-bromo-4-hydroxyphenylacetic acid]",Formation of de-brominated products on incubation with rat liver homogenates,[6],not associated with formation of de-brominated products
same,Formation of de-brominated products on incubation with DEHAL1,[5]; data not shown,not associated with formation of de-brominated products
same,Inhibition of DEHAL1-induced deiodinase activity,[3],Neither tyrosine nor bromo-HPA showed the ability to inhibit deiodination
[D3]tyrosine,[D3]tyrosine detectable in cellular proteins,[7],6.68 ± 0.52 nmol
same,Molar percentage of the excreted metabolites in 24-h urine (% of infused [D3]bromotyrosine),[8],Undetectable
same,Total amounts (nmole) excreted in 24-h urine,[8],Undetectable
deuterated 3-bromo-4-hydroxyphenylacetic acid [[D3]Bromo-HPA],Molar percentage of the excreted metabolites in 24-h urine (% of infused [D3]bromotyrosine),[8],0.43±0.04%
same,Total amounts (nmole) excreted in 24-h urine,[8],2.15 ± 0.21 nmol
same,Molar percentage of the excreted metabolites in 24-h urine (% of infused [D3]bromotyrosine),[8]; listed as [D3]bromo-HPA,0.43±0.04%
"N[C@@H](Cc1ccc(O)c(I)c1)C(=O)O [iodotyrosine, reference compound]",Formation of mono-halogenated tyrosine as product of de-halogenation of the di-halogenated substrate by DEHAL1,[5],7%
same,Substrate converted by DEHAL1,[5],83%
"[2H]c1cc(O)c([2H])c([2H])c1CC(=O)O [[D3]HPA, [D3]4-hydroxyphenylacetic acid]",Molar percentage of the excreted metabolites in 24-h urine (% of infused [D3]bromotyrosine),[8],1.33±0.26%
same,Total amounts (nmole) excreted in 24-h urine,[8],6.66 ± 1.33 nmol
same,Molar percentage of the excreted metabolites in 24-h urine (% of infused [D3]bromotyrosine),[8]; listed as [D3]4-hydroxyphenylacetic acid,~ 1.3%
"N[C@@H](Cc1cc(I)c(O)c(I)c1)C(=O)O [di-iodotyrosine, reference compound]",Substrate converted by DEHAL1,[5],70%
"N[C@@H](Cc1ccc(O)c(Br)c1)C(=O)O [bromotyrosine, 3-bromotyrosine]",Formation of mono-halogenated tyrosine as product of de-halogenation of the di-halogenated substrate by DEHAL1,[5],3%
same,Substrate converted by DEHAL1,[5],18%
same,Inhibition of DEHAL1-induced deiodinase activity,[3],could inhibit DEHAL1-induced deiodinase activity in a concentration-dependent manner
[D5]bromo-HPA,Detection of deuterated bromo-HPA in urine,[9],unable to detect
"O=C(O)Cc1ccc(O)cc1 [HPA, 4-hydroxyphenylacetic acid]",Urinary excretion rate relative to un-metabolized bromotyrosine,"[8]; deuterium-labeled metabolites, 500 nmole [D3]bromotyrosine",10.7 fold
same,Urinary excretion rate relative to un-metabolized chlorotyrosine,[1],35.6 fold
